Measured values: patent US6984729B1, “Oligonucleotides specific for hepatitis B virus” (priority 1995, dated 2006)
Strand notation (5' to 3'): a small letter for the sugar, then the base; units joined by * are phosphorothioate-linked, units joined directly phosphodiester-linked; [ ] holds rarer units or linkages, { } end groups; capitals alone tell only the bases. d = 2'-deoxy (DNA)

How the values were obtained:
[1] = tested on: internally 32P-labelled HBV precore-core RNA (epsilon region); assay: RNase H cleavage of HBV precore-core RNA with noncontiguous oligonucleotides targeted to the epsilon region; format: biochemical, hepatitis B virus; conditions: for total RNA cleavage by RNase H: 10+10 and 12+12 noncontiguous oligonucleotides versus mixtures of arms, FIGS. 5A, 6A; for double cleavage (twice cleaved product) by RNase H on both sides of the epsilon stem: FIGS. 5B, 6B
Procedure: To determine whether an oligonucleotide of the invention is capable of successfully hybridizing to its target, an RNase H assay was performed (Frank et al. (1993) Proc. Int. Conf. Nucleic Acid Med. Applns. 1:4.14(abstract)). This assay is useful when a region of at least four contiguous nucleotides of the oligonucleotide is DNA and the target is RNA. Hybridization of the DNA portion of the oligonucleotide to the RNA target is identified by cleavage at that site by RNase H.
Noncontiguous oligonucleotides targeted to the HBV epsilon region have also been prepared and tested. The epsilon region is characterized by an RNA stem-loop structure consisting primarily of double-stranded RNA with a single-stranded bulge and loop of 6 bases each (FIG. 3). […] The ability of RNase H to cleave an RNA in this manner inflicts greater damage on the RNA than normal antisense oligodeoxynucleotides, while allowing the targeting of a biologically important region that is otherwise difficult to target due to its double-stranded nature.
Based on this information, several oligodeoxynucleotide phosphorothioates were prepared to test the hypothesis that hybridization by mode B is preferred when spanning the base of an RNA stem. 20mer and 24mer noncontiguous oligonucleotides (Table 2) were prepared as well as the 10mers and 12mers corresponding to the “arms” of the noncontiguous sequences.
If a single oligodeoxynucleotide were able to bind across the base of epsilon to sequences on either side of the stem, RNase H might cleave both sites and effectively cut out the epsilon stem-loop from the RNA. […] The 12+12 noncontiguous phosphorothioates show the same ability to bind across the base of the RNA stem. […] Double cleavage of the transcript in the presence of the mixture of 12mer arms (HBV71+HBV72) was much slower (FIG. 6B).
When oligonucleotides hybridizing via mode B were lengthened to allow strand invasion of the RNA stem, disruption of the stem-loop structure occurred. Oligonucleotides HBV89 (SEQ ID NO:39), HBV90 (SEQ ID NO:40), and HBV91 (SEQ ID NO:41) bind across the base of epsilon via mode B and strand invade on either the 5 side (HBV89) or the 3′ side (HBV90 and HBV91) of the RNA stem. HBV89M is an extension of HBV64M with ten 2′-O-methyl RNA residues invading the RNA stem on the 5′-side. Addition of these strand invading nucleotides increased the cleavage efficiency from 23% to 32% at 100 nM oligonucleotide.
Uniformally ^32P-labelled RNA was prepared from 1 μg linearized plasmid using the Ambion MEGAscript In Vitro Transcription Kit (Ambion, Inc., Austin, Tex.) according to the manufacturers' instructions, using [α-^32p] CTP as the radioactive label. The RNA was treated with RNase-free DNase I (Ambion, Inc., Austin, Tex.), extracted with phenol:chloroform: isoamyl alcohol (25:24:1) and purified from nucleotides and nucleosides on a G-50 Sephadex spin column (Boehringer-Mannheim, Indianapolis, Ind., or Pharmacia, Uppsala, Sweden).
In 9 μl 1× RNase H buffer (40 mM Tris-HCl pH 7.4, 4 mM MgCl2, 1 mM DTT), 20–100 nM labelled RNA and 100 nM oligonucleotides were preincubated for 15 min at 37° C. 1 μl RNase H (1 U/μl) was added, and the reaction was incubated at 37° C. for 10 min. The reactions were quenched and analyzed as described above.
Quantitation of the cleavage products was performed using software supplied with the Phosphorimager (Molecular Dynamics, Sunnyvale, Calif., or Bio-Rad Laboratories, Hercules, Calif.). “Counts” were determined by drawing a box around the band of interest and subtracting the background determined with a box drawn nearby. Counts in a product band were compared to total counts in the lane above that band to determine % cleavage.

HBVpol RNA = assay: In vitro translation assay (wheat germ translation system); format: biochemical, hepatitis B virus; conditions: FIG. 8
Procedure: The oligonucleotides of the invention can be assayed for antisense inhibitory activity with a number of different assays. For example, an in vitro translation assay can be used to test antisense activity in which an antisense oligonucleotide can inhibit synthesis of a protein product encoded by the targeted mRNA. In such an assay, oligonucleotides targeted to the polymerase gene were tested against both target and an unrelated control RNA in the wheat germ translation system. […] Results are represented graphically in FIG. 7.
This assay was also used to compare the activity of mismatched oligonucleotides to the activity of the parent oligonucleotide. Four such oligonucleotides, all derivatives of HBVpol-2 (HBVpol-A, SEQ ID NO:46; HBVpol-B, SEQ ID NO:47; HBVpol-C, SEQ ID NO:48, HBVpol-D, SEQ ID NO:49) (Table 1) were synthesized and tested in the assay.
The 5′ end of the polymerase gene (pol) open reading frame, nt 2292–2942, was amplified by the PCR from the full length HBV clone pCH3/3097 (Bartenschlager et al. (1992) Nucleic Acids Res. 20:195–202). The 5′ amplification primer AS10 (SEQ ID NO:55) encoded an EcoRI site. The 3′ amplification primer AS11 (SEQ ID NO:56) both encoded a PstI site and introduced a stop codon in the place of a leucine codon at position 2942–2944. The PCR product was digested with EcoRI and PstI (Promega, Madison, Wis.) and inserted into similarly digested plasmid vector pGEM-3z (Promega, Madison, Wis.). The resulting recombinant plasmid was recut with PstI and an oligonucleot-ide dA:dT(30) linker was introduced.
B. In vitro Transcription of RNA pHBVpol and a second plasmid pHSVProt were linearized with HindIII (Promega, Madison, Wis.), RNA was in vitro transcribed from each construct using T7 Cap-Scribe reagents (Boehringer-Mannheim, Indianapolis, Ind.) employed as per the manufacturer's instructions. The quantity and quality of the RNA's was assessed on a 2% agarose/formaldehyde gel. The control HSVProt RNA was arbitrarily diluted 10 fold to 200 ng/μl and stored in 20 μl aliquots at −80° C.
In this series of experiments only phosphodiester (PO) oligonucleotides were used. 5 μM, 2.5 μM, and 1.25 μM stocks of each of HBVpol-1, HBVpol-2, HBVpol-3, and randomer were made up and stored frozen. Reactions were set up using 100 ng HBVpol and 200 ng pHSVprot. The volume of water in the translation master mix was reduced to allow the addition of 1 μl of each dilution of each oligonucleotide to the reactions whilst maintaining the final volume at 12 μl. This corresponds to final oligonucleotide concentrations of approximately 400 nM, 200 nM, and 100 nM.

| Substance | total RNA cleavage by RNase H [1] | antisense activity of mismatched oligonucleotides compared to parent HBVpol-2 (HBVpol RNA) | other results |
| --- | --- | --- | --- |
| AGAGATGATTTAAGGGTCGATGTCCATGCC (chemistry not given here) [HBV90] | – | – | strand invasion of the RNA stem evidenced by RNase H cleavage within the stem near the core initiator [1]: able to strand invade |
| AGGCAGAGGTTAAGGGTCGA (antisense dA*dG*dG*dC*dA*dG*dA*dG*dG*dT*dT*dA*dA*dG*dG*dG*dT*dC*dG*dA) [HBV66] | activate RNase H cleavage of the transcript more effectively than the mixture of 10mer arms | – | double cleavage (twice cleaved product) by RNase H on both sides of the epsilon stem [1]: greater after 10 minutes than in the presence of HBV68 |
| AGGCAGAGGTTAAGGGTCGATGTCCATGCC (phosphorothioate, further chemistry not given here) [HBV91] | – | – | strand invasion of the RNA stem evidenced by RNase H cleavage within the stem near the core initiator [1]: able to strand invade |
| GACAUGAACAAGAGAUGAUUTAAGGGTCGA (RNA letters in 5' part, chemistry not given here) [HBV89M] | – | – | cleavage efficiency ([1]; 100 nM oligonucleotide, RNase H): 32% |
| GATAGGGGCATTTGGTGcTC (antisense dG*dA*dT*dA*dG*dG*dG*dG*dC*dA*dT*dT*dT*dG*dG*dT*dG*dC*dT*dC) [HBVpol-C, single mismatch derivative of HBVpol-2] | – | varying degrees of reduction in activity | – |
| GATAGGGGCcTTTGGTGGTC (antisense dG*dA*dT*dA*dG*dG*dG*dG*dC*dC*dT*dT*dT*dG*dG*dT*dG*dG*dT*dC) [HBVpol-B, single mismatch derivative of HBVpol-2] | – | varying degrees of reduction in activity | – |
| GAcAGGGGCATTTGGTGGTC (antisense dG*dA*dC*dA*dG*dG*dG*dG*dC*dA*dT*dT*dT*dG*dG*dT*dG*dG*dT*dC) [HBVpol-A, single mismatch derivative of HBVpol-2] | – | varying degrees of reduction in activity | – |
| GAcAGGGGCcTTTGGTGcTC (antisense dG*dA*dC*dA*dG*dG*dG*dG*dC*dC*dT*dT*dT*dG*dG*dT*dG*dC*dT*dC) [HBVpol-D, three mismatches, derivative of HBVpol-2, reference compound] | – | abrogated antisense activity | – |
| TAAGGGTCGAAGGCAGAGGT (antisense dT*dA*dA*dG*dG*dG*dT*dC*dG*dA*dA*dG*dG*dC*dA*dG*dA*dG*dG*dT) [HBV68] | activate RNase H cleavage of the transcript more effectively than the mixture of 10mer arms | – | – |
| TATAAGGGTCGAAGGCAGAGGTGA (antisense dT*dA*dT*dA*dA*dG*dG*dG*dT*dC*dG*dA*dA*dG*dG*dC*dA*dG*dA*dG*dG*dT*dG*dA) [HBV79] | equal | – | double cleavage (twice cleaved product) by RNase H on both sides of the epsilon stem [1]: efficiently activate RNase H cleavage on both sides of the stem after only 1.5 minutes |
